Measurements as given in US20080058351A1, “Novel heterobicyclic compounds” (Concert Pharmaceuticals Inc., priority 2006, published 2008).
pIC50, pKi: −log10 of the molar value.

Legend:
[1] = target: benzodiazepine site on the GABAA receptor (rat cortex); assay: Inhibition of [3H]flunitrazepam binding to rat cortex membranes; conditions: read-out: IC50 for displacing [3H]flunitrazepam binding to rat cortex
[2] = target: benzodiazepine receptor of the rat cerebral cortex; assay: Benzodiazepine receptor binding, competition with [3H]flunitrazepam; conditions: [3H]flunitrazepam 0.4 nM, 4° C., 60 minutes
Method: Benzodiazepine Receptor Binding. Compound 1 and Indiplon were compared in their ability to bind to compete with [^3H] flunitrazepam (0.4 nM) for binding to the benzodiazepine receptor of the rat cerebral cortex using the method of Speth, R C et al., 1979, Life Sci., 24:351-358. Varying concentrations of Indiplon or Compound 1 (30 pM-1 μM) were used. Diazepam (3 μM) was used as a non-specific receptor binding compound. Binding was allowed to proceed at 4° C. for 60 minutes. Quantification of binding was determined by scintillation counting.

[3] = Co-incubation of Compound 1 and Indiplon with human liver microsomes; assay type: in vitro ADME
Method: Co-incubation of Compound 1 and Indiplon with Human Liver Microsomes: In another set of experiments Compound 1 and Indiplon were incubated together with human liver microsomes and their metabolism followed over time to eliminate any potential variability in samples. The reaction mixture compositions utilized in these experiments were as follows:
Reaction Mixture Composition A:
Reaction Mixture Composition B:
Reaction Mixture Composition C:
HPLC-grade solvents were used for preparation of all solutions. Dosing solutions of test agents were initially prepared at five times the final concentrations of the various reaction mixtures indicated above. Dosing solutions were warmed to 37° C. prior to the start of the assay. Two sets of triplicate wells were prepared in a 96-well deep well plate for each reaction mixture and warmed to 37° C. At the start of the assay, dosing solutions were diluted five-fold into the reaction wells. The reaction plate was incubated at 37° C., and 30 μL aliquots removed immediately after start (15 sec), and after each of 10 min, 20 min, 30 min, 40 min and 60 min of reaction. The aliquots were added to 30 μL of ice cold STOP Solution (acetonitrile containing 0.3% acetic acid with 3 mM haloperidol as an internal standard) in a separate 96-well plate. The stopped reactions were incubated at least 10 min at −20° C., and 30 μL of water was added. The plates were centrifuged for 15 min at 2000 rpm, 4° C. Approximate 60 μL of the supernatant was removed without disturbing the pellet and transferred to a fresh 96-well plate for analysis. Analysis samples were stored at −20° C. and analyzed by LC-MS.

[4] = Human liver microsome metabolic stability assay (separate incubations); assay type: in vitro ADME; conditions: 1.0 mg/mL human liver microsomes
Description: Human Microsomal Assay: The metabolic stability of the present compounds may be evaluated in one or more microsomal assays that are known in the art. See, for example, Obach, R. S. Drug Metab Disp 1999, 27, p. 1350 “Prediction of human clearance of twenty-nine drugs from hepatic microsomal intrinsic clearance data: An examination of in vitro half-life approach and nonspecific binding to microsomes”; Houston, J. B. et al., Drug Metab Rev 1997, 29, p. 891 “Prediction of hepatic clearance from microsomes, hepatocytes, and liver slices”; Houston, J. B. Biochem Pharmacol 1994, 47, p. 1469 “Utility of in vitro drug metabolism data in predicting in vivo metabolic clearance”; Iwatsubo, T et al., Pharmacol Ther 1997, 73, p. 147 “Prediction of in vivo drug metabolism in the human liver from in vitro metabolism data”; and Lave, T. et al., Pharm Res 1997, 14, p. 152 “The use of human hepatocytes to select compounds based on their expected hepatic extraction ratios in humans”; each of which are incorporated herein in their entirety.
The objectives of this study were to determine the metabolic stability of the test compounds in pooled liver microsomal incubations and to perform full scan LC-MS analysis for the detection of major metabolites. Samples of the test compounds, exposed to pooled human liver microsomes, were analyzed using HPLC-MS (or MS/MS) detection. For determining metabolic stability, multiple reaction monitoring (MRM) was used to measure the disappearance of the test compounds. For metabolite detection, Q1 full scans were used as survey scans to detect the major metabolites.
Experimental Procedures: Human liver microsomes were obtained from Absorption Systems L.P. (Exton, Pa.). Details about the matrices used in the experiments are shown below. The incubation mixture was prepared as follows:
Reaction Mixture Composition
Incubation of Test Compounds with Liver Microsomes: The reaction mixture, minus cofactors, was prepared. An aliquot of the reaction mixture (without cofactors) was incubated in a shaking water bath at 37° C. for 3 minutes. Another aliquot of the reaction mixture was prepared as the negative control. The test compound was added into both the reaction mixture and the negative control at a final concentration of 1 μM. An aliquot of the reaction mixture was prepared as a blank control, by the addition of plain organic solvent (not the test compound). The reaction was initiated by the addition of cofactors (not into the negative controls), and then incubated in a shaking water bath at 37° C. Aliquots (200 μL) were withdrawn in triplicate at 0, 15, 30, 60, and 120 minutes and combined with 800 μL of ice-cold 50/50 acetonitrile/dH2O to terminate the reaction. The positive controls, testosterone and propranolol, were run simultaneously with the test compounds in separate reactions.
All samples were analyzed using LC-MS (or MS/MS). An LC-MRM-MS/MS method was used for metabolic stability. Also, Q1 full scan LC-MS methods were performed on the blank matrix and the test compound incubation samples. The Q1 scans served as survey scans to identify any sample unique peaks that might represent the possible metabolites. The masses of these potential metabolites can be determined from the Q1 scans.

[5] = system: GABAA receptor (rat cortex membranes); assay: Enhancement of [35S]TBPS binding to rat cortex membranes
Description: A further index of activity at the benzodiazepine site on the GABAA receptor is the ability to increase the binding of [^35S] t-butylbicyclophosphorothionate (TBPS) to rat cortex membranes. TBPS binds to a site on the GABAA receptor which is closely associated with the chloride channel, and an increase in TBPS binding correlates with increased activation of the chloride conductance (i.e., enhanced GABAA receptor function). Compounds which act as agonists at the benzodiazepine site increase TBPS binding to varying degrees, which reflects their relative efficacies.

Cc1ccc(-c2nc3ccc(C)cn3c2CC(=O)N(C)C)cc1 [zolpidem] showed a pIC50 [1] of 7.59.

In the case of CC(=O)N(C)c1cccc(-c2ccnc3c(C(=O)c4cccs4)cnn23)c1 [Compound 1, N-d3-Methyl-N-{3-[3-(thiophene-2-carbonyl)-pyrazolo[1,5-a]pyrimidin-7-yl]-phenyl}-acetamide], the pIC50 [2] was 8.54 and the pKi [2] was 8.62.

For [2H]C([2H])([2H])N(C(C)=O)c1cccc(-c2ccnc3c(C(=O)c4cccs4)cnn23)c1 [Compound 1, N-d3-Methyl-N-{3-[3-(thiophene-2-carbonyl)-pyrazolo[1,5-a]pyrimidin-7-yl]-phenyl}-acetamide], the half-life ([3]; 0.1 μM each, 1.0 mg/ml human microsomes (FIG. 1 panel B)) was 4.557 h, the “ratio of half lives of Compound 1 to Indiplon” value (“ratio … to Indiplon” below) ([3]; 0.1 μM each, 1.0 mg/ml human microsomes (panel B)) was 1.257 and the half-life ([3]; 0.2 μM each, 2.0 mg/ml human microsomes (FIG. 1 panel C)) was 2.543 h. For the same molecule, the “ratio … to Indiplon” value ([3]; 0.2 μM each, 2.0 mg/ml human microsomes (panel C)) was 1.312, the half-life ([3]; 0.5 μM each, 1.0 mg/ml human microsomes (FIG. 1 panel A)) was 3.405 h and the “ratio … to Indiplon” value ([3]; 0.5 μM each, 1.0 mg/ml human microsomes (panel A)) was 1.260. The half life ([4]; 1 μM test compound) was 1.24 h, the “% remaining after 60 minutes of exposure” value ([4]; 1 μM test compound) was 66% and the “% remaining after 120 minutes of exposure” value ([4]; 1 μM test compound) was 59%. The “ratio … to Indiplon” value ([4]; 1 μM) was 1.261.

In the case of CN1C(=O)CN=C(c2ccccc2F)c2cc([N+](=O)[O-])ccc21 [flunitrazepam], the pIC50 [1] was 6.94.

CC(=O)N(C)c1cccc(-c2ccnc3c(C(=O)c4cccs4)cnn23)c1 [Indiplon, N-methyl-N-[3-[3-(2-thienylcarbonyl)-pyrazolo[1,5-a]pyrimidin-7-yl]phenyl]acetamide] showed a half-life at 0.1 μM ([3]; human liver microsomes, 0.1 μM each, 1.0 mg/ml human microsomes (FIG. 1 panel B)) of 3.62 h, a half-life at 0.2 μM ([3]; human liver microsomes, 0.2 μM each, 2.0 mg/ml human microsomes (FIG. 1 panel C)) of 1.94 h and a half-life at 0.5 μM ([3]; human liver microsomes, 0.5 μM each, 1.0 mg/ml human microsomes (FIG. 1 panel A)) of 2.7 h. For the same molecule, the pIC50 [2] was 8.44, the pKi [2] was 8.52 and the “% remaining after 60 minutes of exposure” value ([4]; 1 μM test compound) was 50%. For the same molecule, the “% remaining after 120 minutes of exposure” value ([4]; 1 μM test compound) was 42% and the half-life at 1 μM ([4]; pooled human liver microsomes, 1 μM test compound) was 0.983 h.

In the case of CCN(CC)CCN1C(=O)CN=C(c2ccccc2F)c2cc(Cl)ccc21 [flurazepam], the “Emax (maximum enhancement of TBPS binding over the concentration range employed)” value [5] was 71%.

With CN1C(=O)CN=C(c2ccccc2)c2cc(Cl)ccc21 [diazepam] the “Emax (maximum enhancement of TBPS binding over the concentration range employed)” value [5] was 55% and the pIC50 [1] was 7.77.

In the case of Cc1nnc2n1-c1ccc(Cl)cc1C(c1ccccc1Cl)=NC2 [triazolam], the “Emax (maximum enhancement of TBPS binding over the concentration range employed)” value [5] was 78% and the pIC50 [1] was 9.30.
